Patent US8304422B2, “Compositions and methods for inhibition of the JAK pathway” (Rigel Pharmaceuticals, Inc., priority 2007, dated 2012)

System: BaF3 V617F cells; UKE-1
Experiment: Proliferation Assay (Cell Titer-Glo; Example 7)
Assay type: cell-based
Settings: proliferation 72 hours, inhibit JAK2 activity, cell line (BaF3 V617F or UKE-1) not stated
Method in brief: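 Proliferation IC50s reflect 72 h compound exposure at 37 °C, read by Cell Titer-Glo luminescence. Compound was serially diluted 3-fold from a 5 mM DMSO stock and added as a 2× solution; BaF3 V617F cells were grown in RPMI/10% FBS, UKE-1 in Iscove's DMEM with FBS, equine serum and hydrocortisone.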

Compound COc1cc(Nc2ncc(Cl)c(Nc3ccc(CNS(=O)(=O)N(C)C)cc3)n2)cc(Cl)c1OC [II-92, 5-Chloro-N2-(3-chloro-4,5-dimethoxyphenyl)-N4-[(4-(dimethylamino)sulfonylamino)methylphenyl]-2,4-pyrimidinediamine] has an IC50 of 558 nM.

For COc1c(C)cc(Nc2ncc(Cl)c(Nc3ccc(CNS(=O)(=O)N(C)C)cc3)n2)cc1Cl [II-93, 5-Chloro-N2-(3-chloro-4-methoxy-5-methylphenyl)-N4-[(4-(dimethylamino)sulfonylamino)methylphenyl]-2,4-pyrimidinediamine], the IC50 was 350 nM.

With COc1c(Cl)cc(Nc2ncc(Cl)c(Nc3ccc(CNS(=O)(=O)N(C)C)cc3)n2)cc1Cl [II-94, 5-Chloro-N2-[3,5-dichloro-4-methoxyphenyl]-N4-[(4-(dimethylamino)sulfonylamino)methylphenyl]-2,4-pyrimidinediamine] the IC50 was 13500 nM.

CN1CCN(c2ccc(Nc3ncc(Cl)c(Nc4ccc(CNS(=O)(=O)N(C)C)cc4)n3)cc2)CC1 [II-96, 5-Chloro-N4-[(4-(dimethylamino)sulfonylamino)methylphenyl]-N2-[4-(4-methyl-1-piperazinyl)phenyl]-2,4-pyrimidinediamine] gave an IC50 of 91 nM.

With CN1CCC(c2ccc(Nc3ncc(Cl)c(Nc4ccc(CNS(=O)(=O)N(C)C)cc4)n3)cc2)CC1 [II-98, 5-Chloro-N4-[(4-(dimethylamino)sulfonylamino)methylphenyl]-N2-[4-(1-methyl-4-piperidinyl)pheny]-2,4-pyrimidinediamine] the IC50 was 264 nM.

Compound COc1c(C)cc(Nc2ncc(C)c(Nc3ccc(CNS(=O)(=O)N(C)C)cc3)n2)cc1C [II-99, 4-[(4-(Dimethylamino)sulfonylamino)methylphenyl]-N2-(3,5-dimethyl-4-methoxyphenyl)-5-methyl-2,4-pyrimidinediamine] has an IC50 of 103 nM.

Work on COc1cc(Nc2ncc(C)c(Nc3ccc(CNS(=O)(=O)N(C)C)cc3)n2)cc(C)c1OC [II-100, 4-[(4-(Dimethylamino)sulfonylamino)methylphenyl]-N2-(3,4-dimethoxy-5-methylphenyl)-5-methyl-2,4-pyrimidinediamine] yielded an IC50 of 179 nM.

Work on COc1c(C)cc(Nc2ncc(C)c(Nc3ccc(CNS(=O)(=O)N(C)C)cc3)n2)cc1Cl [II-101, 5-Methyl-N2-(3-chloro-4-methoxy-5-methylphenyl)-N4-[(4-(dimethylamino)sulfonylamino)methylphenyl]-2,4-pyrimidinediamine] yielded an IC50 of 194 nM.

Compound COc1c(Cl)cc(Nc2ncc(C)c(Nc3ccc(CNS(=O)(=O)N(C)C)cc3)n2)cc1Cl [II-102, 5-methyl-N2-[3,5-dichloro-4-methoxyphenyl]-N4-[(4-(dimethylamino)sulfonylamino)methylphenyl]-2,4-pyrimidinediamine] has an IC50 of 1170 nM.

With COc1cc(Nc2ncc(C)c(Nc3ccc(CNS(=O)(=O)N(C)C)cc3)n2)cc(OC)c1OC [II-103, N4-[(4-(Dimethylamino)sulfonylamino)methylphenyl]-5-methyl-N2-(3,4,5-trimethoxyphenyl)-2,4-pyrimidinediamine] the IC50 was 509 nM.

Cc1cnc(Nc2ccc(N3CCN(C)CC3)cc2)nc1Nc1ccc(CNS(=O)(=O)N(C)C)cc1 [II-104, N4-[(4-(Dimethylamino)sulfonylamino)methylphenyl]-5-methyl-N2-[4-(4-methyl-1-piperazinyl)phenyl]-2,4-pyrimidinediamine] was tested, and the IC50 was 349 nM.

For Cc1cnc(Nc2ccc(N3CCC(F)(F)CC3)cc2)nc1Nc1ccc(CNS(=O)(=O)N(C)C)cc1 [II-105, N4-[(4-(Dimethylamino)sulfonylamino)methylphenyl]-N2-[4-(4,4-difluoro-1-piperidinyl)phenyl]-5-methyl-2,4-pyrimidinediamine], the IC50 was 20300 nM.

Cc1cnc(Nc2ccc(C3CCN(C)CC3)cc2)nc1Nc1ccc(CNS(=O)(=O)N(C)C)cc1 [II-106, N4-[(4-(Dimethylamino)sulfonylamino)methylphenyl]-5-methyl-N2-[4-(1-methyl-4-piperidinyl)pheny]-2,4-pyrimidinediamine] showed an IC50 of 383 nM.

CCN1CCN(c2ccc(Nc3ncc(C)c(Nc4ccc(CNS(=O)(=O)N(C)C)cc4)n3)cc2)CC1 [II-107, N4-[(4-(Dimethylamino)sulfonylamino)methylphenyl]-5-methyl-N2-[4-(4-ethyl-1-piperazinyl)phenyl]-2,4-pyrimidinediamine] showed an IC50 of 316 nM.

CCNS(=O)(=O)NCc1ccc(Nc2nc(Nc3cc(C)c(OC)c(C)c3)ncc2Cl)cc1 [II-108, 5-chloro-N2-(3,5-Dimethyl-4-methoxyphenyl)-N4-[(4-(ethylamino)sulfonylamino)methylphenyl]-2,4-pyrimidinediamine] was tested, and the IC50 was 85 nM.

For CCNS(=O)(=O)NCc1ccc(Nc2nc(Nc3cc(C)c(OC)c(OC)c3)ncc2Cl)cc1 [II-109, 5-Chloro-4-[(4-(ethylamino)sulfonylamino)methylphenyl]-N2-(3,4-dimethoxy-5-methylphenyl)-2,4-pyrimidinediamine], the IC50 was 151 nM.

CCNS(=O)(=O)NCc1ccc(Nc2nc(Nc3cc(C)c(OC)c(Cl)c3)ncc2Cl)cc1 [II-110, 5-Chloro-N2-(3-chloro-4-methoxy-5-methylphenyl)-N4-[(4-(ethylamino)sulfonylamino)methylphenyl]-2,4-pyrimidinediamine] was tested, and the IC50 was 601 nM.

With CCNS(=O)(=O)NCc1ccc(Nc2nc(Nc3cc(OC)c(OC)c(OC)c3)ncc2Cl)cc1 [II-112, 5-Chloro-N4-[(4-(ethylamino)sulfonylamino)methylphenyl]-N2-(3,4,5-trimethoxyphenyl)-2,4-pyrimidinediamine] the IC50 was 431 nM.

Work on CCNS(=O)(=O)NCc1ccc(Nc2nc(Nc3cc(Cl)c(OC)c(OC)c3)ncc2Cl)cc1 [II-113, 5-Chloro-N2-(3-chloro-4,5-dimethoxyphenyl)-N4-[(4-(ethylamino)sulfonylamino)methylphenyl]-2,4-pyrimidinediamine] yielded an IC50 of 286 nM.

Compound CCNS(=O)(=O)NCc1ccc(Nc2nc(Nc3ccc(N4CCN(C)CC4)cc3)ncc2Cl)cc1 [II-114, 5-Chloro-N4-[(4-(ethylamino)sulfonylamino)methylphenyl]-N2-[4-(4-methyl-1-piperazinyl)phenyl]-2,4-pyrimidinediamine] has an IC50 of 180 nM.

CCNS(=O)(=O)NCc1ccc(Nc2nc(Nc3ccc(C4CCN(C)CC4)cc3)ncc2Cl)cc1 [II-115, 5-chloro-N4-[(4-(ethylamino)sulfonylamino)methylphenyl]-N2-[4-(1-methyl-4-piperidinyl)pheny]-2,4-pyrimidinediamine] was tested, and the IC50 was 409 nM.

CCNS(=O)(=O)NCc1ccc(Nc2nc(Nc3cc(C)c(OC)c(C)c3)ncc2C)cc1 [II-116, N2-(3,5-Dimethyl-4-methoxyphenyl)-N4-[(4-(ethylamino)sulfonylamino)methylphenyl]-5-methyl-2,4-pyrimidinediamine] showed an IC50 of 73.7 nM.

CCNS(=O)(=O)NCc1ccc(Nc2nc(Nc3cc(C)c(OC)c(OC)c3)ncc2C)cc1 [II-117, N2-(3,4-Dimethoxy-5-methylphenyl)-N4-[(4-(ethylamino)sulfonylamino)methylphenyl]-5-methyl-2,4-pyrimidinediamine] showed an IC50 of 208 nM.

For CCNS(=O)(=O)NCc1ccc(Nc2nc(Nc3cc(C)c(OC)c(Cl)c3)ncc2C)cc1 [II-118, N2-(3-Chloro-4-methoxy-5-methylphenyl)-N4-[(4-(ethylamino)sulfonylamino)methylphenyl]-5-methyl-2,4-pyrimidinediamine], the IC50 was 229 nM.

CCNS(=O)(=O)NCc1ccc(Nc2nc(Nc3cc(Cl)c(OC)c(Cl)c3)ncc2C)cc1 [II-119, N2-[3,5-Dichloro-4-methoxyphenyl]-N4-[(4-(ethylamino)sulfonylamino)methylphenyl]-5-methyl-2,4-pyrimidinediamine] gave an IC50 of 1360 nM.

CCNS(=O)(=O)NCc1ccc(Nc2nc(Nc3cc(OC)c(OC)c(OC)c3)ncc2C)cc1 [II-120, N4-[(4-(Ethylamino)sulfonylamino)methylphenyl]-5-methyl-N2-(3,4,5-trimethoxyphenyl)-2,4-pyrimidinediamine] gave an IC50 of 871 nM.

In the case of CCNS(=O)(=O)NCc1ccc(Nc2nc(Nc3cc(Cl)c(OC)c(OC)c3)ncc2C)cc1 [II-121, N2-(3-Chloro-4,5-dimethoxyphenyl)-N4-[(4-(ethylamino)sulfonylamino)methylphenyl]-5-methyl-2,4-pyrimidinediamine], the IC50 is reported as 363 nM.

Compound CCNS(=O)(=O)NCc1ccc(Nc2nc(Nc3ccc(N4CCN(C)CC4)cc3)ncc2C)cc1 [II-122, N4-[(4-(Ethylamino)sulfonylamino)methylphenyl]-5-methyl-N2-[4-(4-methyl-1-piperazinyl)phenyl]-2,4-pyrimidinediamine] has an IC50 of 276 nM.

With CCNS(=O)(=O)NCc1ccc(Nc2nc(Nc3ccc(N4CCC(F)(F)CC4)cc3)ncc2C)cc1 [II-123, N2-[4-(4,4-Difluoro-1-piperidinyl)phenyl]-N4-[(4-(ethylamino)sulfonylamino)methylphenyl]-5-methyl-2,4-pyrimidinediamine] the IC50 was 373 nM.

With CCNS(=O)(=O)NCc1ccc(Nc2nc(Nc3ccc(C4CCN(C)CC4)cc3)ncc2C)cc1 [II-124, N4-[(4-(Ethylamino)sulfonylamino)methylphenyl]-5-methyl-N2-[4-(1-methyl-4-piperidinyl)pheny]-2,4-pyrimidinediamine] the IC50 was 1160 nM.

CCNS(=O)(=O)NCc1ccc(Nc2nc(Nc3ccc(N4CCN(CC)CC4)cc3)ncc2C)cc1 [II-125, N4-[(4-(ethylamino)sulfonylamino)methylphenyl]-N2-[4-(4-ethyl-1-piperazinyl)phenyl]-5-methyl-2,4-pyrimidinediamine] gave an IC50 of 512 nM.

With COc1c(C)cc(Nc2ncc(C(F)(F)F)c(Nc3ccc(CNS(=O)(=O)C4CC4)cc3)n2)cc1C [II-126, N4-[4-(N-Cyclopropylsulfonylamino)methylphenyl]-N2-(3,5-dimethyl-4-methoxyphenyl)-5-trifluoromethyl-2,4-pyrimidinediamine] the IC50 was 1510 nM.

With CN1CCN(c2ccc(Nc3ncc(C(F)(F)F)c(Nc4ccc(CNS(=O)(=O)C5CC5)cc4)n3)cc2)CC1 [II-127, N4-[4-(N-Cyclopropylsulfonylamino)methylphenyl]-N2-[4-(4-methyl-1-piperazinyl)phenyl]-5-trifluoromethyl-2,4-pyrimidinediamine] the IC50 was 338 nM.
